From ChEMBL document CHEMBL5550206, “Identification of 6-Fluorine-Substituted Coumarin Analogues as POLRMT Inhibitors with High Potency and Safety for Treatment of Pancreatic Cancer” (J Med Chem, 2024)
Calls of active or inactive are those of the source. The rule behind the calls is not given here.

Legend:
[1] = system: MIA PaCa-2; experiment: Down-regulation of ND1 gene expression in human MIA PaCa-2 cells at 0.1 to 1 uM measured after 12 hrs by RT-qPCR analysis; format: functional, cell-based; settings: dose 0.1-1 µM
[2] = system: MIA PaCa-2; experiment: Down-regulation of CytB gene expression in human MIA PaCa-2 cells at 0.1 to 1 uM measured after 12 hrs by RT-qPCR analysis; format: functional, cell-based; settings: dose 0.1-1 µM
[3] = system: MIA PaCa-2; experiment: Reduction of protein complexes of mitochondrial electron transport chain in human MIA PaCa-2 cells reduction in MTCO1 protein level by Western blot analysis; format: functional, cell-based; settings: dose 0.001-5 µM
[4] = system: MIA PaCa-2; experiment: Inhibition of colony formation in human MIA PaCa-2 cells at 5 to 200 nM incubated for 14 days by crystal violet staining based assay; format: functional, cell-based; settings: dose 5-200 nM, time 14.0 day
[5] = system: MIA PaCa-2; experiment: Induction of cell arrest in human MIA PaCa-2 cells assessed as accumulation of cells at G2 phase at 25 nM measured after 96 hrs by PI staining based flow cytometry (reference value: 11.2%); format: functional
[6] = system: MIA PaCa-2; experiment: Induction of cell arrest in human MIA PaCa-2 cells assessed as accumulation of cells at G2 phase at 50 nM measured after 96 hrs by PI staining based flow cytometry (reference value: 11.2%); format: functional
[7] = system: MIA PaCa-2; experiment: Induction of cell arrest in human MIA PaCa-2 cells assessed as viable cells at 25 nM measured after 4 days by Annexin V-FITC and propidium iodide (PI) staining based assay (reference value: 94.9%); format: functional; settings: MIA PaCa-2, 96 h, time 4 day, read-out: Activity
[8] = system: MIA PaCa-2; experiment: Induction of cell arrest in human MIA PaCa-2 cells assessed as early apoptotic cells at 50 nM measured after 4 days by Annexin V-FITC and propidium iodide (PI) staining based assay (reference value: 1.07%); format: functional; settings: time 4 day
[9] = system: MIA PaCa-2; experiment: Induction of cell arrest in human MIA PaCa-2 cells assessed as necrotic cells at 50 nM measured after 4 days by Annexin V-FITC and propidium iodide (PI) staining based assay (reference value: 0.82%); format: functional; settings: time 4 day
[10] = system: MIA PaCa-2; experiment: Induction of cell arrest in human MIA PaCa-2 cells assessed as late apoptotic cells at 100 nM measured after 4 days by Annexin V-FITC and propidium iodide (PI) staining based assay (reference value: 3.23%); format: functional; settings: time 4 day
[11] = system: MIA PaCa-2; experiment: Induction of cell arrest in human MIA PaCa-2 cells assessed as early apoptotic cells at 200 nM measured after 4 days by Annexin V-FITC and propidium iodide (PI) staining based assay (reference value: 1.07%); format: functional; settings: time 4 day
[12] = system: CAPAN-1; experiment: Antiproliferative activity against human CAPAN-1 cells assessed as cell viability measured after 168 hrs incubation by SRB assay; format: functional, cell-based; settings: CAPAN-1, 168 h
[13] = Antiproliferative activity against HUVEC cells assessed as cell viability measured after 168 hrs incubation by SRB assay; format: toxicity, cell-based; settings: human
[14] = system: MIA PaCa-2; experiment: Antitumor activity against human MIA PaCa-2 cells xenografted in BALB/c nude mouse assessed as reduction in Ki67 protein expression at 25 to 100 mg/kg, iv once daily for 25 consecutive day after 2 weeks of cells injection by immunohistochemical analysis; format: functional, organism-based; settings: dose 25-100 mg/kg

## CCN(CC)C(=O)[C@@H](C)Oc1cc2oc(=O)cc(-c3ccccc3C)c2cc1F
[1]
  Activity: Active
[2]
  Activity: Active
[3]
  Activity: Dose-Dependent Effect
[4]
  inhibition: Active
[5]
  Activity: 12.6%
[6]
  Activity: 10.4%
[7]
  viability at 0.025 µM: 94.5%
[8]
  Activity: 1.08%
[9]
  Activity: 0.76%
[10]
  Activity: 3.61%
[11]
  Activity: 1.06%
[12]
  IC50: 404 nM
[13]
  IC50 at 168 h: > 50000 nM
[14]
  Activity: Active
